In patent US20250353891A1 (MEDIMMUNE LIMITED, priority 2022, published 2025):
Starred links: 1 amine or outer side, 2 acyl side, 3 side chain; linkers in the order of their positions; H or OH if unused. Non-standard residues stand in square brackets, D forms with d. Residues, ends and D or L forms follow the SMILES beside them. Groups on a side chain read outwards from the residue. *: point of attachment. C20 diacid = O=C(O)CCCCCCCCCCCCCCCCCCC(=O)*; C18 diacid = O=C(O)CCCCCCCCCCCCCCCCC(=O)*; γGlu = O=C(O)[C@H](CCC(=O)[*:2])N[*:1]; αMeF = C[C@](N)(Cc1ccccc1)C(=O)O; AEEA = NCCOCCOCC(=O)O; Aib = CC(C)(N)C(=O)O

Experiments:
[1] = biological target: human GLP-1 receptor (hGLP-1R) (Homo sapiens, UniProt P43220); assay: cAMP production (HTRF) in CHO cells expressing hGLP-1R; format: cell-based; design: expressed in transfected cells; settings: for EC50: Table 6, peptides modified at position 17, cAMP in CHO hGLP-1R cells, geometric mean, read-out: hGLP-1R EC50; for % Relative Potency Ratio: Table 6, % GLP-1R activity relative to GLP-1 / % GlucR activity relative to glucagon
Sequence of human GLP-1 receptor (hGLP-1R) (P43220 24-463): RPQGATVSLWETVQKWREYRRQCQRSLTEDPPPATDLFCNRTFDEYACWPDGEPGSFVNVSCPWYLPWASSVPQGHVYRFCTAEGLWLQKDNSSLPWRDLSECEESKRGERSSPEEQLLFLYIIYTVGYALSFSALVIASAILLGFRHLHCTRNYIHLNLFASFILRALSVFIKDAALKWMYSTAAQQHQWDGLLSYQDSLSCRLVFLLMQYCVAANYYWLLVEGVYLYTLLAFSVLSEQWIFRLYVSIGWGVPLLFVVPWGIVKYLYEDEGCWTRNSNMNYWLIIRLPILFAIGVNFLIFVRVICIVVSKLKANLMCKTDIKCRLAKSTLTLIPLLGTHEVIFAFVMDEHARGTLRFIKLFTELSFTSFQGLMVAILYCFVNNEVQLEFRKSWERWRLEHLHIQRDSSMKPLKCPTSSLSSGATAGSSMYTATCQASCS
Method in brief: (§1)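 Read-out: HTRF cAMP (anti-cAMP cryptate donor, cAMP-d2 acceptor in conjugate/lysis buffer), converted to % Delta F and fitted by 4-parameter logistic for EC50. Cell densities were 1×10^5 cells/mL (hGLP-1R) or 2×10^5 cells/mL (hGCGR). Stimulation lasted 30 min at room temperature.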

[2] = biological target: human glucagon receptor (hGCGR) (Homo sapiens, UniProt P47871); assay: cAMP production (HTRF) in CHO cells expressing hGCGR; format: cell-based; design: expressed in transfected cells; settings: Table 6, peptides modified at position 17; cAMP in CHO hGCGR cells; geometric mean; read-out: hGluc-R EC50
Sequence of human glucagon receptor (hGCGR) (P47871 26-477): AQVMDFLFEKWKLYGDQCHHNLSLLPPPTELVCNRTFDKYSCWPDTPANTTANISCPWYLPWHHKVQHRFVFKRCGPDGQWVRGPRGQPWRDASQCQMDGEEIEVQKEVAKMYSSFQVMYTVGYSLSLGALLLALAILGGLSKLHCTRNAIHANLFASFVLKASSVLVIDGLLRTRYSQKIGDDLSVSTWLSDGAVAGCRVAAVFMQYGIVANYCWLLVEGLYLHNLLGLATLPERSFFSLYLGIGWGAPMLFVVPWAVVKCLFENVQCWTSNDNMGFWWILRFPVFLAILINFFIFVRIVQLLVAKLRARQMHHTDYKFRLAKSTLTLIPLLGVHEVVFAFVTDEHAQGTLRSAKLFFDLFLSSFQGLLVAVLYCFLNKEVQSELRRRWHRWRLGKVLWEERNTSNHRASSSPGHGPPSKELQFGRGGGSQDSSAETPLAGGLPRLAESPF
Method in brief: as §1

Row | SMILES | EC50 [1] | % Relative Potency Ratio [1] | EC50 [2]
1 | CC[C@H](C)[C@H](NC(=O)C(C)(C)NC(=O)[C@H](CCC(N)=O)NC(=O)[C@@H](NC(=O)[C@](C)(Cc1ccccc1)NC(=O)[C@H](CC(=O)O)NC(=O)[C@H](CCC(N)=O)NC(=O)[C@H](C)NC(=O)[C@H](C)NC(=O)[C@H](CCCCNC(=O)COCCOCCNC(=O)COCCOCCNC(=O)CC[C@H](NC(=O)CCCCCCCCCCCCCCCCC(=O)O)C(=O)O)NC(=O)[C@H](CO)NC(=O)[C@H](CC(=O)O)NC(=O)[C@H](CC(C)C)NC(=O)[C@](C)(Cc1ccccc1)NC(=O)[C@H](CCCCN)NC(=O)[C@H](CO)NC(=O)[C@@H](NC(=O)[C@H](CC(=O)O)NC(=O)[C@H](CO)NC(=O)[C@@H](NC(=O)[C@](C)(Cc1ccccc1)NC(=O)[C@H](CO)NC(=O)CNC(=O)[C@H](Cc1c[nH]cn1)NC(=O)C(C)(C)NC(=O)[C@@H](N)Cc1c[nH]cn1)[C@@H](C)O)C(C)C)C(C)C)C(=O)N[C@@H](C)C(=O)N[C@@H](CC(N)=O)C(=O)N[C@H](C(N)=O)[C@@H](C)O [Peptide 24] (H-H[Aib]HGS[αMeF]TSDVSK[αMeF]LDSK([AEEA-AEEA-γGlu-C18 diacid])AAQD[αMeF]VQ[Aib]IANT-NH2; N-terminus assumed) | 0.0828 nM | 2.4 | 0.101 nM
2 | CC[C@H](C)[C@H](NC(=O)C(C)(C)NC(=O)[C@H](CCC(N)=O)NC(=O)[C@@H](NC(=O)[C@](C)(Cc1ccccc1)NC(=O)[C@H](CC(=O)O)NC(=O)[C@H](CCC(N)=O)NC(=O)[C@H](C)NC(=O)[C@H](C)NC(=O)[C@H](CCCCNC(=O)COCCOCCNC(=O)COCCOCCNC(=O)CC[C@H](NC(=O)CC[C@H](NC(=O)CCCCCCCCCCCCCCCCCCC(=O)O)C(=O)O)C(=O)O)NC(=O)[C@H](CO)NC(=O)[C@H](CC(=O)O)NC(=O)[C@H](CC(C)C)NC(=O)[C@](C)(Cc1ccccc1)NC(=O)[C@H](CCCCN)NC(=O)[C@H](CO)NC(=O)[C@@H](NC(=O)[C@H](CC(=O)O)NC(=O)[C@H](CO)NC(=O)[C@@H](NC(=O)[C@](C)(Cc1ccccc1)NC(=O)[C@H](CO)NC(=O)CNC(=O)[C@H](Cc1c[nH]cn1)NC(=O)C(C)(C)NC(=O)[C@@H](N)Cc1c[nH]cn1)[C@@H](C)O)C(C)C)C(C)C)C(=O)N[C@@H](C)C(=O)N[C@@H](CC(N)=O)C(=O)N[C@H](C(N)=O)[C@@H](C)O [Peptide 25] (H-H[Aib]HGS[αMeF]TSDVSK[αMeF]LDSK([AEEA-AEEA-γGlu-γGlu-C20 diacid])AAQD[αMeF]VQ[Aib]IANT-NH2) | 0.726 nM | 3.6 | 1.31 nM
3 | CC[C@H](C)[C@H](NC(=O)[C@H](Cc1c[nH]c2ccccc12)NC(=O)[C@H](CCC(N)=O)NC(=O)[C@@H](NC(=O)[C@](C)(Cc1ccccc1)NC(=O)[C@H](CC(=O)O)NC(=O)[C@H](CCC(N)=O)NC(=O)[C@H](C)NC(=O)[C@H](C)NC(=O)[C@H](CCCCNC(=O)COCCOCCNC(=O)COCCOCCNC(=O)CC[C@H](NC(=O)CCCCCCCCCCCCCCCCC(=O)O)C(=O)O)NC(=O)[C@H](CO)NC(=O)[C@H](CC(=O)O)NC(=O)[C@H](CC(C)C)NC(=O)[C@](C)(Cc1ccccc1)NC(=O)[C@H](CCCCN)NC(=O)[C@H](CO)NC(=O)[C@@H](NC(=O)[C@H](CC(=O)O)NC(=O)[C@H](CO)NC(=O)[C@@H](NC(=O)[C@](C)(Cc1ccccc1)NC(=O)[C@H](CO)NC(=O)CNC(=O)[C@H](CCC(N)=O)NC(=O)C(C)(C)NC(=O)[C@@H](N)Cc1c[nH]cn1)[C@@H](C)O)C(C)C)C(C)C)C(=O)N[C@@H](C)C(=O)N[C@@H](CC(N)=O)C(N)=O [Peptide 26] (H-H[Aib]QGS[αMeF]TSDVSK[αMeF]LDSK([AEEA-AEEA-γGlu-C18 diacid])AAQD[αMeF]VQWIAN-NH2) | 0.0806 nM | 218.5 | 8.9 nM
